Reference: patent US6942963B1, “Methods for identifying treatments for neurotoxicity in Alzheimer's disease caused by β-amyloid peptides” (Massachusetts Institute of Technology, priority 1997, dated 2005)
“Also recorded” adds a separate entry of the source. Where two headings read alike, the source gives them in different places. Non-standard residues stand in square brackets, D forms with d. Residues, ends and D or L forms follow the SMILES beside them.

Experiments:
hNT cells [1] = assay: Membrane depolarization of hNT cells by aggregated Aβ1-42 (DiBAC4(3) fluorescence); type: cell-based, human; conditions: for % ΔF in presence of addition / Δ EM in presence of addition: aggregated Aβ1-42 20 μM plus the named addition, [Ca^2+] 2 mM, Na^+; for inhibition of membrane depolarization by aggregated Aβ1-42: simultaneous presence, separately or together, summary statement
Experimental: Changes in membrane potential were measured using the fluorescent potentiometric probe DiBAC4(3), (Molecular Probes, Inc., Eugene, Oreg.). This dye, bis-(1,3-dibutylbarbituric acid)trimethine oxonol, detects membrane depolarization, because it enters depolarized cells and binds to intracellular proteins or membranes. […] Hyperpolarization results in extrusion of the anionic dye and thus a decrease in fluorescence. Our measurements use two dyes, fura-2 and DiBAC4(3), since these dyes have excitation wavelengths that are far apart, but have similar emission wavelengths. DiBAC4(3) was added to fura-2AM loaded hNT cells at a concentration of 100 nM in Tyr2Ca. Rapidly alternating measurements of fura-2 (excited at 340 & 380 nm) and DiBAC4(3) (excited at 490 nm) were performed using emission at 516 nm. Both dyes were measured using the special “Fura2-Fluo3” filter set 7400 from Chroma Technology (Brattleboro, Vt.), a Zeiss Axiovert 100 inverted microscope and a photometry system (model “Delta Ram” from Photon Technology International, Inc., Monmouth Junction, N.J.).
The bis-oxonol dye DiBAC4(3) was used as an indicator of transmembrane electrical potential changes (Langheinrich and Daut, J. Physiol. 502:397-408, 1997) when our hNT cells were treated with, for example, the β-amyloid peptide Aβ1-42. The use of this dye enabled us to monitor groups of 5-15 neurons, rather than single cells as would be the case with patch clamping methods. We expected great variability from cell to cell, as was found in our earlier patch clamp work (Sanderson et al., Brain Res. 744:7-14, 1997). The method has been used by many laboratories for the determination of membrane potentials in different cell types. Fluorescence is increased upon membrane depolarization as more dye enters the cytosol, resulting in increased binding to proteins (Braiuner et al., Biochim. Biophys. Acta 771:[…], 1984). Partitioning of bis-oxonol dye between the plasma membrane and the cytosol follows the Nernst equation (Langheinrich and Daut, 1997). Unless otherwise indicated, all measurements were carried out in Tyrode's solution containing 2 mM Ca.
We calibrated the gross fluorescence as a function of membrane potential by treating a culture of hNT neurons, bathed in Tyrode's 2Ca buffer with the usual 3 mM K^+, containing 97 nM DiBAC4(3), with Tyrode's 2Ca buffer containing 40 mM KCl. We measured the gross fluorescence at excitation=490 nm and emission=510 nm for the depolarization by KCl and for depolarization by the Aβ1-42 peptide. We used the formula proposed by Langheinrich and Daut, 1997: % ΔF=(1−Fmin/Fmax)*100=ΔEMmV
where Fmin=fluorescence before treatment, Fmax=fluorescence during treatment, ΔEM mV is the change in membrane potential brought about by the treatment. The calculation based on the expected depolarization by changing from 3 mM KCl to 40 MM KCl gave a value of ΔEM=3.8 mV/1% ΔF.
Groups of hNT neuronal cells (5-17) were exposed to Aβ1-42 (20 μM) that had been incubated at 37° C. for 48 hours; 97 nM DiBAC4(3) was present. Fluorescence was measured as described above; Ex=490 nm, Em=510 nm.

[2] = test system: βAP25-35-induced calcium influx, hNT cells; assay: βAP25-35-induced calcium influx in hNT cells: effect of channel antagonists and decoy peptides; type: cell-based, human; conditions: for effect on increase in internal calcium concentration due to βAP25-35: decoy peptide mixed with βAP25-35 at ratio 1:1 (20 μM+20 μM), hNT cells; for effect on βAP25-35 calcium influx at molar ratio: filtered stocks
[3] = test system: βAP1-42-induced calcium influx, hNT cells; assay: βAP1-42 (Aβ1-42) aggregate-induced calcium influx in hNT cells: effect of decoy peptides and channel blockers; type: cell-based, human; conditions: for inhibition of calcium influx caused by aggregated Aβ1-42: summary statement, concentration not given; for effect on βAP1-42 calcium influx: βAP1-42 25 μM coincubated with equimolar decoy peptide at 37° C. for 44 hours
hNT cells [4] = assay: Internal calcium concentration [Ca2+]int in hNT cells (fura-2) on exposure to β-amyloid peptide or test agent alone; type: cell-based, human; conditions: hNT cells, decoy peptide alone at 20 μM, filtered stocks, Tyrode's/2 mM Ca
[5] = type: physicochemical; conditions: water
[6] = test system: voltage-gated calcium channels; assay: Previous patch-clamp experiments on β-amyloid peptide calcium influx; type: cell-based
βAP25-35 = target: T1, βAP25-35 (Homo sapiens, UniProt P05067); assay: Aggregation rate of βAP25-35 by light scattering at 500 nm; type: biochemical; conditions: decoy peptide at approximately equimolar concentration, Tyrode's/2 mM Ca^2+, light scattering 500 nm
T1 construct: made in house; host or cells: chemical peptide synthesis (BioPolymers Laboratory, MIT), HPLC purified

βAP1-42 = target: T2, βAP1-42 (Homo sapiens, UniProt P05067); assay: Aggregation rate of βAP1-42 by light scattering at 500 nm; type: biochemical; conditions: decoy peptide at 1:1 molar ratio, Tyrode's/2 mM Ca^2+, light scattering 500 nm
T2 construct: βAP1-42 (Aβ1-42); purchased Quality Control Biochemicals; host or cells: synthetic peptide
T2 sequence (P05067 672-713): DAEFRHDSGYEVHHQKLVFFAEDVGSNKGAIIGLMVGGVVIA

N#Cc1cc2c(cc1[N+](=O)[O-])=NC(=O)C(=O)N=2 [CNQX, 6-cyano-7-nitroquinoxaline-2,3-dione]
% ΔF in presence of addition (hNT cells [1]): 17.0% | Δ EM in presence of addition (hNT cells [1]): +64.6 mV | effect on membrane depolarization (DiBAC4(3) fluorescence plateau) by aggregated Aβ1-42 (hNT cells [1]; hNT cells, CNQX (20 μM) added after Aβ1-42aggr): little change in fluorescence; also recorded: remained unchanged; also recorded: did not significantly change fluorescence | inhibition of membrane depolarization by aggregated Aβ1-42 (hNT cells [1]): not inhibited | [Ca^2+]int when antagonist added after βAP25-35 exposure ([2]; cells first exposed to 21 μM βAP25-35 (270% of control), then βAP25-35 plus CNQX 22 μM): fell to control levels | block of calcium influx into hNT neuronal cells caused by βAP25-35 ([2]; concentration not stated): can be blocked | effect on βAP25-35-induced calcium influx ([2]; βAP25-35 21 μM, CNQX at 22 μM, applied together): completely prevented | effect on calcium influx / cytosolic calcium caused by aggregated Aβ1-42 ([3]; hNT cells, aggregated Aβ1-42, 20 μM CNQX added after desensitization): completely inhibited; also recorded: lowers the remaining calcium level to the original control value | inhibition of calcium influx caused by aggregated Aβ1-42 [3]: inhibited

CC[C@@H](C)[C@@H](N)C(=O)N[C@H](C)C(=O)N[C@H](C)C(=O)NCC(=O)N[C@@H](C(=O)N[C@@H](C(=O)NCC(=O)NCC(=O)NCC(=O)O)[C@H](C)O)[C@H](C)CC [DP1, ^+NH3-IAAGITGGG-COO^−] (H-[dI][dA][dA]G[dI][dT]GGG-OH)
effect on increase in internal calcium concentration due to βAP25-35 [2]: reduced or abolished the increase in the internal calcium concentration | effect of decoy peptide by itself on cytosolic calcium concentrations (hNT cells [4]): raise cytosolic calcium concentrations somewhat | solubility [5]: water soluble

[Cl][Cd][Cl] [cadmium chloride]
effect on membrane depolarization by aggregated Aβ1-42 (hNT cells [1]): did not prevent membrane depolarization | block of β-amyloid peptide calcium influx [6]: did not block the calcium influx

D-AP5
% ΔF in presence of addition (hNT cells [1]): 10.4% | Δ EM in presence of addition (hNT cells [1]): +39.5 mV | effect on membrane depolarization by aggregated Aβ1-42 (hNT cells [1]; hNT cells, D-AP5 50 μM): did not interfere with the depolarization phenomenon; also recorded: does not block membrane depolarization | inhibition of membrane depolarization by aggregated Aβ1-42 (hNT cells [1]): not inhibited | effect on calcium influx caused by aggregated Aβ1-42 ([3]; hNT cells, aggregated 20 μM Aβ1-42, D-AP5 50 μM): largely, but not completely, abolished calcium influx; also recorded: does inhibit calcium influx | inhibition of calcium influx caused by aggregated Aβ1-42 [3]: inhibited

^+NH3-TVIR^+TIAAA-COO^− (TVIRTIAAA) [DP8]
effect on aggregation rate of βAP25-35 (βAP25-35): did not reduce the aggregation rate of βAP25-35 | effect on βAP25-35 calcium influx at molar ratio ([2]; DP8:βAP25-35 0.2:1 (5 mM DP8+20 mM βAP25-35)): modestly reduced | effect on βAP25-35 calcium influx at molar ratio ([2]; DP8:βAP25-35 1:1 (10 mM DP8+10 mM βAP25-35)): reduce or abolish the effect of the β-amyloid peptide | effect on βAP25-35 calcium influx at molar ratio ([2]; DP8:βAP25-35 2:1 (20 mM DP8+11 mM βAP25-35)): reduce or abolish the effect of the β-amyloid peptide | effect on increase in internal calcium concentration due to βAP25-35 [2]: reduced or abolished the increase in the internal calcium concentration | effect of decoy peptide by itself on cytosolic calcium concentrations (hNT cells [4]): no effect on cytosolic calcium concentrations | effect on βAP1-42 calcium influx ([3]; hNT cells): reduced or abolished the effect of βAP1-42 on the calcium influx

^+NH3.T.P.I.R^+.T.P.A.P.A.COO^− (H-[dT][dP][dI][dR][dT][dP][dA][dP][dA]-OH; also: modified) [DP16]
effect on aggregation rate of βAP25-35 (βAP25-35): reduced the aggregation rate of βAP25-35 | reduction of aggregation rate of βAP1-42 (βAP1-42): about 50% | effect on βAP1-42 calcium influx ([3]; hNT cells): reduced or abolished the effect of βAP1-42 on the calcium influx
